Laboratory results taken from a melting point compilation (Tetko et al.).

For `COC(=O)c1cc(S(N)(=O)=O)ccc1F`, the melting point was 97 to 99 °C.
`Cc1cccc(-n2nc(C(C)(C)C)cc2N)c1` showed a melting point of 90 to 92 °C.
Work on `CS(=O)(=O)CCCOc1cccc2c1CCC2O` (configuration not stated) yielded a melting point of 77 to 79 °C.
With `O=C(Nc1ccc(F)cc1)NC1CCNCC1` the melting point was 183 to 185 °C.
For `COc1ccc(Cl)cc1CBr`, the melting point was 77 to 79 °C.
With `Cc1ccc(-n2nnc(C(=O)O)c2C(C)C)cc1` the melting point was 176 to 178 °C.
For `O=c1c2ccccc2ncn1CCBr`, the melting point was 105 to 107 °C.
`CCOCc1nnc(N)o1` showed a melting point of 118 to 120 °C.
`COc1cc(NC(=O)c2ccco2)c(C(=O)O)cc1OC` showed a melting point of 88 to 90 °C.
With `O=C1c2ccccc2C(=O)N1CC1(CBr)CCCC1` the melting point was 68 to 70 °C.
In the case of `c1ccc2sc(C3CCNCC3)nc2c1`, the melting point is reported as 127 to 129 °C.
Compound `Cc1ccc(C)c(SCc2cccc(C(=O)O)c2)c1` has a melting point of 129 to 131 °C.
Compound `Nc1ccc(CCN2CCOCC2)cc1` has a melting point of 87 to 89 °C.
For `O=C(O)C(c1ccccc1)N1CCc2ccccc21` (configuration not stated), the melting point was 181 to 183 °C.
`O=C1C(Br)CCN1c1c(F)cccc1F` (configuration not stated) showed a melting point of 79 to 81 °C.
With `Fc1cc(Br)c(F)cc1S` the melting point was 47 to 49 °C.
Compound `CCOc1ccccc1-c1nn(C(C)(C)C)cc1C(=O)O` has a melting point of 207 to 209 °C.
For `O=C1CCS(=O)(=O)c2ccc(Br)cc21`, the melting point was 146 to 148 °C.
`Nc1nnc(-c2cc3c(s2)CCCC3)o1` showed a melting point of 266 to 268 °C.
Work on `NCCNS(=O)(=O)c1ccccc1` yielded a melting point of 74 to 76 °C.
Compound `O=C(c1ccc(CCl)cc1)N1CCCC1` has a melting point of 198 to 200 °C.
Compound `Cc1c(C(=O)O)cc(Br)cc1S(=O)(=O)Cl` has a melting point of 139 to 141 °C.
`O=C(O)c1nc(NCCc2ccccc2)ncc1Cl` showed a melting point of 158 to 160 °C.
`CC1Cc2ccccc2N1S(=O)(=O)c1cccc(C(=O)O)c1` (configuration not stated) gave a melting point of 170 to 172 °C.
With `O=C(O)C#Cc1ccc(F)cc1F` the melting point was 170 to 172 °C.
`O=C(O)CNS(=O)(=O)c1ccc(N2CCCC2=O)cc1` gave a melting point of 130 to 132 °C.
In the case of `CCS(=O)(=O)CCn1ccc(N)n1`, the melting point is reported as 53 to 55 °C.
Compound `O=C(Nc1ccccc1C(F)(F)F)OCC(F)(F)F` has a melting point of 68 to 70 °C.
`Nc1nc(C2CC2)c(Cc2ccccc2Cl)s1` gave a melting point of 127 to 129 °C.
With `CC(=O)NCc1ccc(-c2csc(N)n2)s1` the melting point was 221 to 223 °C.
For `C=CCn1c(S)nc2ccccc21`, the melting point was 109 to 111 °C.
`COc1cc(F)c(C(=O)O)cc1OC` gave a melting point of 192 to 194 °C.
In the case of `CCCC(C(=O)O)N(C)C` (configuration not stated), the melting point is reported as 179 to 181 °C.
Compound `O=C(O)c1sccc1S(=O)(=O)Nc1cccc2cn[nH]c12` has a melting point of 236 to 238 °C.
In the case of `NS(=O)(=O)c1c(F)cccc1[N+](=O)[O-]`, the melting point is reported as 163 to 165 °C.
Compound `O=[N+]([O-])c1cc(S(=O)(=O)C(F)F)ccc1Cl` has a melting point of 71 to 73 °C.
Compound `CCOc1ccc(O)c(C=O)c1` has a melting point of 49 to 51 °C.
In the case of `CN1CCC/C1=N/S(=O)(=O)c1ccc(N)cc1`, the melting point is reported as 172 to 174 °C.
In the case of `CC(C)(C)c1ccc(C=C[N+](=O)[O-])cc1`, the melting point is reported as 44 to 46 °C.
`O=C(O)c1cc(C(=O)O)cc(S(=O)(=O)Cl)c1` gave a melting point of 217 to 219 °C.
`O=c1[nH]cnc2ncccc12` showed a melting point of 249 to 251 °C.
Work on `COc1ccc(CNC(=O)C(C)Cl)cc1OC` (configuration not stated) yielded a melting point of 97 to 99 °C.
In the case of `Cn1nc[nH]c1=O`, the melting point is reported as 169 to 171 °C.
`Cc1c(Br)cc(S(=O)(=O)Cl)cc1C(=O)O` gave a melting point of 167 to 169 °C.
Work on `O=C(O)c1ccccc1NCCC1=CCCCC1` yielded a melting point of 129 to 131 °C.
In the case of `COc1cccc(CNC(=O)C(C)Cl)c1` (configuration not stated), the melting point is reported as 89 to 91 °C.
Compound `ClCc1nc(-c2cccc(Cl)c2)no1` has a melting point of 38 to 42 °C.
`CC1(C)NC(=O)C1(C)C` showed a melting point of 95 to 97 °C.
For `CC1CCCCN1c1cc(C(=O)O)ccn1` (configuration not stated), the melting point was 164 to 166 °C.
In the case of `CC(=O)C12CC3CC(C1)CC(C(=O)O)(C3)C2`, the melting point is reported as 123 to 125 °C.
With `Nc1ccccc1N1CC(C(F)(F)F)OC1=O` (configuration not stated) the melting point was 74 to 76 °C.
For `COC(=O)c1nnc2c(Cl)cccn12`, the melting point was 52 to 55 °C.
